Assays:
Phakopsora pachyrhizi [1] = test: Soybean leaf disk assay, control of Asian soybean rust; assay type: in vivo; details: soybean leaf disks, strain 1×10^8 CFU/mL, azoxystrobin 0.5 ppm
Protocol: For detached-leaf assays performed in the following examples, bacterial strains stored in a freezer (−80° C.) were each streaked onto Luria Bertani (LB) agar (25 g LB broth and 15 g agar per liter of deionized water) in an 8.5-cm diameter plastic plate. A single colony from the plate was picked and placed in 50 ml of either LB liquid broth or a liquid broth consisting of NaCl (5 g), tryptone (10 g), nutrient broth (8 g), CaCl2 (0.14 mM), MgCl2·6H2O (0.2 mM), and MnCl2·4H2O (0.01 mM) per liter of deionized water in a 250-ml flask. Calcium chloride (CaCl2), MgCl2, and MnCl2 were filtered sterilized using 0.22 μm vacuum filter and were then added to NaCl, tryptone, nutrient broth (which were autoclaved together). Cultures were harvested after 48 h by pelleting cells and re-suspending to original volume in sterile H2O. Colony forming units (CFU/mL) were determined using standard dilution plate count method, and plates were inspected for signs of contamination. Sterile distilled water was added to achieve a final concentration needed in detached-leaf or growth chamber strain evaluations.
The susceptible soybean cultivar Williams 82 was used in strain evaluation using the detached-leaf technique (Twizeyimana and Hartman, 2010). […]
Data recorded were numbers of uredinia in 1-cm diameter circle recorded 14 days after inoculation. […]

Phakopsora pachyrhizi [2] = test: Soybean leaf disc assay with wettable powder formulations, control of Asian soybean rust; assay type: in vivo; details: soybean leaf discs, 150 μL, azoxystrobin 0.25 ppm as control
Protocol: For the tray drying method, 829 grams of cell paste obtained from a liquid culture of ATP15329 was mixed with 18.24 g of glycerol and 72.95 g of microcel E using a food processor. Half of the cell paste was dried at 40° C. to a water activity of less than 0.30, at which time it contained 3.53E11 CFU/g. The other half was dried at 25° C. and 50% RH to a water activity of less than 0.6, at which time it contained 4.75E11 CFU/g. The dried powder formulation was stored in heat sealed mylar pouches at 4° C.
For the spray drying method, 200 grams of cell paste obtained from a liquid culture of ATP15329 was mixed with 22 g of skim milk powder using an emulsion blender. This material was spray dried at outlet temperature of 70° C., at which time it contained 7.86E10 CFU/g. The dried powder formulation was stored in heat sealed mylar pouches at 4° C.
This evaluation followed the protocol used in Example 5. Briefly, leaf disks were each sprayed with 150 μL of different formulations of the bacterial strain AIP015329, azoxystrobin (0.25 ppm) (fungicide control) on the abaxial surface with 150 μl using a fingertip sprayer (Container & Packaging Supply, Eagle, ID) fitted to a 15 mL conical centrifuge tube. Leaf disks were placed adaxial side down on saturated 20×20 cm filter paper in a plastic container (Blister Box 20×20 cm, Placon, Madison, WI); two filter papers were used per box. Boxes with leaf disks were incubated at room temperature in the dark, 24 hours later, leaf disks in the box were inoculated as described earlier. Inoculated and non-inoculated/not treated controls were added. After inoculation, boxes were maintained and incubated as described in the first-round evaluations.
Data recorded were numbers of uredinia in 1-cm diameter circle recorded 14 days after inoculation. […] Data were analyzed using analysis of variance (ANOVA) in PROC GLM of SAS (version 9.4; SAS Institute Inc., Cary, NC) and significant differences (P<0.05) were observed among treatments (Table 9).

## CO/C=C(/C(=O)OC)c1ccccc1Oc1cc(Oc2ccccc2C#N)ncn1 [Azoxystrobin, azoxystrobin]
Phakopsora pachyrhizi [1]; confirmation
  Disease Control (%) Confirmation: 95.7 (a) %
Phakopsora pachyrhizi [1]; uredinia counted 14 days after inoculation
  Disease Control (%) Primary Screen: 99.8 (a) %
Phakopsora pachyrhizi [2]; spray dried formulation of the strain, 14 days after inoculation
  Disease Control (%) Spray dry: 100 (a) %
Phakopsora pachyrhizi [2]; tray dried formulation dried at 25° C.
  Disease Control (%) Tray dry Dried at 25° C.: 100 (a) %
Phakopsora pachyrhizi [2]; tray dried formulation dried at 40° C.
  Disease Control (%) Tray dry Dried at 40° C.: 100 (a) %

— US20240251801A1, “COMPOSITIONS AND METHODS FOR IMPROVING PLANT HEALTH AND CONTROLLING PLANT DISEASE” (AgBiome, Inc., priority 2021, published 2024)
